Results on 20 compounds are retold here after patent US11427553B2, “Dihydrooxadiazinones” (Bayer Aktiengesellschaft, priority 2017, dated 2022).

The test system of one experiment is HeLa cells. As to the kind of experiment: Assay 1 cell proliferation measurement (CTG, 72 h), HeLa. Particulars: Homo sapiens, HeLa; Assay 1, 72 h, Cell Titer Glo; read-out: HeLa IC50 [nM] (Cervical cancer). It counts as cell-based, human. How it is done: Cell Proliferation Measurement
The antiproliferative activity of the compounds of the general formula (I) was examined in vitro in human cancer cells. For this purpose, the appropriate number of cells (Hela: 800; SK-MEL-3: 1000; A549: 800) were plated in 384-well plates with appropriate growth medium ((A549: DMEM/Ham's F12 (Biochrom; #FG 4815 with stabile Glutamine), FCS 10% final (Biochrom; #S 0415); Hela: DMEM/Ham's F12 (Biochrom; #FG 4815 with stabile Glutamine), FCS 10% final (Biochrom; #S 0415); SK-MEL-3: McCoy's 5A (Biochrom; #F 1015), FCS 10% final (Biochrom; #S 0415), L-Alanyl-L-Glutamine final: 2 mM, (Biochrom; #K 0302)) and incubated at 37° C. overnight. After 24 h, cells on one plate (0 h plate) were treated with 30 μl/cavity of CTG solution (Promega Cell Titer Glo (catalogue #G755B and G756B)) and incubated at room temperature for 10 min, and luminescence was measured by means of a VICTOR V (Perkin Elmer), in order to determine cell viability on commencement of treatment. The cells on the test plate were treated with the compounds of the general formula (I) as and incubated at 37° C. for 72 h. The compounds were added to the cells by means of an HP D300 digital dispenser in a 10-step 2.5-fold dilution series generally starting at a maximum final drug concentration of 100 nM. As control, the cells were treated with vehicle (DMSO at 0.3% final concentration). After 72 h, the cells were treated with 30 μl/cavity of CTG solution (Promega Cell Titer Glo (catalogue #G755B and G756B)) and incubated at room temperature for 10 min. and luminescence was measured by means of a VICTOR V (Perkin Elmer), in order to determine cell viability at the end of treatment. The percentage effect on cell growth and the IC50 derived therefrom were determined for each test substance using the values from the 0 h plate […] and the DMSO control […]. The IC50 values were calculated using a 4-parameter fit.

The next experiment has as its target human full length PDE3A (Homo sapiens (Human), UniProt Q14432). As to the kind of experiment: Assay 4 PDE3A enzyme inhibition (3H-cAMP SPA). It counts as biochemical. The settings on record: Sf9 cell extract. As to the method:
Assay 4 Method for PDE3A Enzyme Inhibition
(§1) The commercially available 3H-cAMP Scintillation Proximity Assay (SPA, Perkin Elmer) system was used for enzyme inhibition studies. For the determination of the in vitro effect of example compounds on the PDE3A reactions 2 μl of the respective example compound solution in DMSO (serial dilutions) were placed in wells of microtiter plates (Isoplate-96/200W; Perkin Elmer). 50 μl of a dilution of PDE3A cell extract from Sf9 cells overexpressing human full length PDE3A (SB Drug Discovery, UK) in buffer A (50 mM Tris/HCl pH 7.5, 8.3 mM MgCl2, 1.7 mM EDTA, 0.2% BSA) was added. The dilution of the PDE3A cell extract was chosen such that the reaction kinetics was linear and less than 70% of the substrate was consumed (typical dilution 1:5000). The reaction was started by addition of 50 μl (0.025 μCi) of 1:2000 in buffer A w/o BSA diluted substrate [8-3H]adenosine 3′, 5′-cyclic phosphate (1 μCi/μl; Perkin Elmer). After incubation at room temperature for 60 min, the reaction was stopped by addition of 25 μl of a suspension containing 18 mg/ml yttrium scintillation proximity beads (Perkin Elmer) in water. The microtiter plates were sealed and measured in a Microbeta scintillation counter (PerkinElmer Wallac). IC50 values were determined from sigmoidal curves by plotting percentage PDE3A activity vs log compound concentration.

The target of the next experiment is human full length PDE3B (Homo sapiens (Human), UniProt Q13370). As to the kind of experiment: Assay 5 PDE3B enzyme inhibition (3H-cAMP SPA). Type of experiment: biochemical. Particulars: Sf9 cell extract. How it is done: as §1, with “PDE3B” for “PDE3A”, “1:6000).” for “1:5000).”
human full length PDE3B, sequence (Q13370 whole entry): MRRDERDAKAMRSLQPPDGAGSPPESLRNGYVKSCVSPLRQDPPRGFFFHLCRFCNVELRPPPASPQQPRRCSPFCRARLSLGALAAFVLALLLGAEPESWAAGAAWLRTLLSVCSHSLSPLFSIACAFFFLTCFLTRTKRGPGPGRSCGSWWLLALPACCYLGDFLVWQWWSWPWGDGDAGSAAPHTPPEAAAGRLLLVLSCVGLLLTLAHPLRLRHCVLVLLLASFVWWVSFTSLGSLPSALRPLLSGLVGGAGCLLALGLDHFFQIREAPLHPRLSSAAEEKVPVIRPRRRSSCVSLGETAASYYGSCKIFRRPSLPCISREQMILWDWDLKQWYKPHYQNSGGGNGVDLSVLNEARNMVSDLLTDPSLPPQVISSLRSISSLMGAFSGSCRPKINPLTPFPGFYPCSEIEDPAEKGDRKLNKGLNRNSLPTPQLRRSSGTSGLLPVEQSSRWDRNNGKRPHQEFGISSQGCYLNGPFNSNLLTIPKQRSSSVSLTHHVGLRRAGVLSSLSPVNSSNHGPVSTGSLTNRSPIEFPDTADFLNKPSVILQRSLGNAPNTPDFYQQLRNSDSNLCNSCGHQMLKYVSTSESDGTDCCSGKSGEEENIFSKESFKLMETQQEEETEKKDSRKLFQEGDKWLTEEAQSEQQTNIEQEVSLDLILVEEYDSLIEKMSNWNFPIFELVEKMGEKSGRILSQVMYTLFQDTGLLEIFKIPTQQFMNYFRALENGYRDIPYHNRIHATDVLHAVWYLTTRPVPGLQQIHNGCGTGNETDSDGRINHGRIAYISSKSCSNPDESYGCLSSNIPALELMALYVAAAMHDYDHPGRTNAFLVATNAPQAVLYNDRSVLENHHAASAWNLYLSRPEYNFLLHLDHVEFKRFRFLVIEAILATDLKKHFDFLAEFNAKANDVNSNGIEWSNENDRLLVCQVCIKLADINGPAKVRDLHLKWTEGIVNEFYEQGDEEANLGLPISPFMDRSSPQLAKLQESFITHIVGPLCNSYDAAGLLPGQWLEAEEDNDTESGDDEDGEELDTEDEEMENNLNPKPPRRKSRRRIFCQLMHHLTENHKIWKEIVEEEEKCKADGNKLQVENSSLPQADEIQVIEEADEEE

human full length PDE3A, sequence (Q14432 whole entry): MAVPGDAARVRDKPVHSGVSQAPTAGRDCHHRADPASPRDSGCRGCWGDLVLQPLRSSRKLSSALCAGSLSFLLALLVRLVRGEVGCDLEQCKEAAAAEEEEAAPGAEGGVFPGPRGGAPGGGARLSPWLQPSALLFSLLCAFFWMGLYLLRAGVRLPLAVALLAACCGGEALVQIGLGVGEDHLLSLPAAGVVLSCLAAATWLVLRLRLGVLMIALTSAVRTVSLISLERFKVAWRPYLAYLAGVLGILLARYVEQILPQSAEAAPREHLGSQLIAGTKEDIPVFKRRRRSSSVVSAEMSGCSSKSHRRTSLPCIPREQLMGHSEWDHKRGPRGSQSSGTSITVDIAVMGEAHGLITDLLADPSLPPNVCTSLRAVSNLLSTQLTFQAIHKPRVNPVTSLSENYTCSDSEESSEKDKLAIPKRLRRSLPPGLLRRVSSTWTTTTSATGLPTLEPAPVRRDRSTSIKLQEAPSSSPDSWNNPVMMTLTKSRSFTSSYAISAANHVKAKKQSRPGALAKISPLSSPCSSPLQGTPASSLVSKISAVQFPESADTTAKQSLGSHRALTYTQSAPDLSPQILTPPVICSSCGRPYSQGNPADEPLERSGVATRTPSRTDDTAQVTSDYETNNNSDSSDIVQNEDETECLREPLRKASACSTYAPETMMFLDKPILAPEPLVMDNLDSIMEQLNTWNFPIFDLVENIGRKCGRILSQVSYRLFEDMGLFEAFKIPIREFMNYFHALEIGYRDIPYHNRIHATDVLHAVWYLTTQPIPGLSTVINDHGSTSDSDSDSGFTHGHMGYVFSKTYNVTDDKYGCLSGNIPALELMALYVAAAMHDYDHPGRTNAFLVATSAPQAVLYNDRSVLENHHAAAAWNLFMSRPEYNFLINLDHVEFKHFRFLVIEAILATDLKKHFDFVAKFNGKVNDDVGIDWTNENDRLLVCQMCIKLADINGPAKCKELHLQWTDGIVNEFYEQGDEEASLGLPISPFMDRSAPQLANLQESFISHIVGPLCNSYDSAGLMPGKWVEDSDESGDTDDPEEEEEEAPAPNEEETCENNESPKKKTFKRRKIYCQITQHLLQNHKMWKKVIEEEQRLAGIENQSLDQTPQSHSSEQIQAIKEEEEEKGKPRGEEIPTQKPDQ

`O=C1NN=C(c2ccc(NCc3cc[nH]n3)c(C(F)(F)F)c2)CO1` [Example 237, 5-[4-{[(1H-Pyrazol-3-yl)methyl]amino}-3-(trifluoromethyl)phenyl]-3,6-dihydro-2H-1,3,4-oxadiazin-2-one]: the IC50 (usually the midpoint of a concentration-inhibition curve) came out at 0.4 nM with HeLa cells, 120 nM against human full length PDE3A and 140 nM at human full length PDE3B.
For `O=C1NN=C(c2ccc(N3CC4CC4C3)c(C(F)(F)F)c2)CO1` (centres unmarked) [Example 252, 5-[4-(3-Azabicyclo[3.1.0]hexan-3-yl)-3-(trifluoromethyl)phenyl]-3,6-dihydro-2H-1,3,4-oxadiazin-2-one] the same measures were 1 nM, 110 nM and 86 nM.
The matching figures for `Cn1nccc1CNc1ccc(C2=NNC(=O)OC2)cc1C(F)(F)F` [Example 236, 5-[4-{[(1-Methyl-1H-pyrazol-5-yl)methyl]amino}-3-(trifluoromethyl)phenyl]-3,6-dihydro-2H-1,3,4-oxadiazin-2-one]: 4 nM, 45 nM and 54 nM.
As for `O=C1NN=C(c2ccc(NCC3(CO)CCC3)c(C(F)(F)F)c2)CO1` [Example 249, 5-[4-({[1-(Hydroxymethyl)cyclobutyl]methyl}amino)-3-(trifluoromethyl)phenyl]-3,6-dihydro-2H-1,3,4-oxadiazin-2-one], the IC50 was determined as 1 nM in the experiment with HeLa cells, 100 nM at human full length PDE3A and 110 nM against human full length PDE3B.
The matching figures for `O=C1NN=C(c2ccc(N3CCCC(O)C3)c(C(F)(F)F)c2)CO1` (racemic) [Example 229, (rac)-5-[4-(3-hydroxypiperidin-1-yl)-3-(trifluoromethyl)phenyl]-3,6-dihydro-2H-1,3,4-oxadiazin-2-one]: 1 nM, 82 nM and 67 nM.
For `COCC(O)CNc1ccc(C2=NNC(=O)OC2)cc1C(F)(F)F` (racemic) [Example 235, (rac)-5-{4-[(2-Hydroxy-3-methoxypropyl)amino]-3-(trifluoromethyl)phenyl}-3,6-dihydro-2H-1,3,4-oxadiazin-2-one] the same measures were 4 nM, 170 nM and 180 nM.
The matching figures for `O=C1NN=C(c2ccc(N3CC[C@H]3CO)c(C(F)(F)F)c2)CO1` [Example 250, 5-{4-[(2S)-2-(Hydroxymethyl)azetidin-1-yl]-3-(trifluoromethyl)phenyl}-3,6-dihydro-2H-1,3,4-oxadiazin-2-one]: 2 nM, 120 nM and 120 nM.
Take `O=C1NN=C(c2ccc(N[C@@H]3C[C@@H]4CC[C@@H]3C4)c(C(F)(F)F)c2)CO1` [Example 233, 5-[4-{[(1R,2R,4R)-Bicyclo[2.2.1]heptan-2-yl]amino}-3-(trifluoromethyl)phenyl]-3,6-dihydro-2H-1,3,4-oxadiazin-2-one]: the results for the IC50 with HeLa cells, at human full length PDE3A and on human full length PDE3B were 8 nM, 86 nM and 250 nM, respectively.
For `COC(C)CNc1ccc(C2=NNC(=O)OC2)cc1C(F)(F)F` (racemic) [Example 242, (rac)-5-{4-[(2-Methoxypropyl)amino]-3-(trifluoromethyl)phenyl}-3,6-dihydro-2H-1,3,4-oxadiazin-2-one] the same measures were 2 nM, 92 nM and 130 nM.
As for `CNC(=O)C1CCCN1c1ccc(C2=NNC(=O)OC2)cc1C(F)(F)F` (centres unmarked) [Example 304, N-methyl-1-[4-(2-oxo-3,6-dihydro-2H-1,3,4-oxadiazin-5-yl)-2-(trifluoromethyl)phenyl]prolinamide], the IC50 in the experiment on HeLa cells was above 100 nM.
Same read-out and setting: for `Cn1ccnc1CNc1ccc(C2=NNC(=O)OC2)cc1C(F)(F)F` [Example 295, 5-[4-{[(1-methyl-1H-imidazol-2-yl)methyl]amino}-3-(trifluoromethyl)phenyl]-3,6-dihydro-2H-1,3,4-oxadiazin-2-one] the value was 47 nM; for `O=C1NN=C(c2ccc(NCCN3CCNC3=O)c(C(F)(F)F)c2)CO1` [Example 313, 5-[4-{[2-(2-oxoimidazolidin-1-yl)ethyl]amino}-3-(trifluoromethyl)phenyl]-3,6-dihydro-2H-1,3,4-oxadiazin-2-one], above 100 nM; for `CC1(CNc2ccc(C3=NNC(=O)OC3)cc2C(F)(F)F)CCOCC1` [Example 298, 5-[4-{[(4-methyloxan-4-yl)methyl]amino}-3-(trifluoromethyl)phenyl]-3,6-dihydro-2H-1,3,4-oxadiazin-2-one], 62 nM.
For `O=C1NN=C(c2ccc(NCCn3ccnn3)c(C(F)(F)F)c2)CO1` [Example 297, 5-[4-{[2-(1H-1,2,3-triazol-1-yl)ethyl]amino}-3-(trifluoromethyl)phenyl]-3,6-dihydro-2H-1,3,4-oxadiazin-2-one], the IC50 with HeLa cells is 59 nM.
Still for that read-out and setting: for `O=C1NN=C(c2ccc(NC(C3CC3)C3CC3)c(C(F)(F)F)c2)CO1` [Example 296, 5-{4-[(dicyclopropylmethyl)amino]-3-(trifluoromethyl)phenyl}-3,6-dihydro-2H-1,3,4-oxadiazin-2-one] the value was 59 nM; for `CN1CCCC(Nc2ccc(C3=NNC(=O)OC3)cc2C(F)(F)F)CC1` (centres unmarked) [Example 301, 5-{4-[(1-methylazepan-4-yl)amino]-3-(trifluoromethyl)phenyl}-3,6-dihydro-2H-1,3,4-oxadiazin-2-one], above 100 nM; for `CN1CCC(Nc2ccc(C3=NNC(=O)OC3)cc2C(F)(F)F)CC1` [Example 309, 5-{4-[(1-methylpiperidin-4-yl)amino]-3-(trifluoromethyl)phenyl}-3,6-dihydro-2H-1,3,4-oxadiazin-2-one], above 100 nM.
Still for that read-out and setting: to `CC1CN(C)CCN(c2ccc(C3=NNC(=O)OC3)cc2C(F)(F)F)C1` (centres unmarked) [Example 302, 5-[4-(4,6-dimethyl-1,4-diazepan-1-yl)-3-(trifluoromethyl)phenyl]-3,6-dihydro-2H-1,3,4-oxadiazin-2-one] belongs above 100 nM.
Same read-out and setting: to `CCNC(=O)CNc1ccc(C2=NNC(=O)OC2)cc1C(F)(F)F` [Example 306, ethyl-N^2-[4-(2-oxo-3,6-dihydro-2H-1,3,4-oxadiazin-5-yl)-2-(trifluoromethyl)phenyl]glycinamide] belongs above 100 nM; to `O=C1NN=C(c2ccc(NCC3CCOCC3)c(C(F)(F)F)c2)CO1` [Example 294, 5-[4-{[(oxan-4-yl)methyl]amino}-3-(trifluoromethyl)phenyl]-3,6-dihydro-2H-1,3,4-oxadiazin-2-one], 45 nM.
